In one assay the test system is NOS binding sites. Put plainly: [3H]L-NG-nitro-arginine autoradiographic binding assay in brain sections. Details: species or system mouse. Conditions: for L-NA displaceable [3H]L-NA binding in the presence of 7-NI: 100 μM 7-NI; for L-NA displaceable [3H]L-NA binding in the presence of D-NA: 10 μM D-NA. The procedure:
Mice and rats were sacrificed by decapitation under 2% halothane anesthesia (30% O2+70% N2O). The brains were rapidly removed, immediately frozen in powdered dry ice, and stored at −70° C. Twelve μm sagittal or coronal sections were cut in a cryostat-microtome at −18° C. (Leitz 1720, Leica, Deerfield, Ill., U.S.A.) and thaw-mounted onto gelatin-coated slides (1% gelatin and 0.1% KCr2O). Adjacent sections were stained with cresyl violet and hematoxylin eosin, and stored at −70° C.
The method for the autoradiographic visualization of NOS binding using [^3H]L-NG-Nitro-arginine ([^3H]L-NA) has been described previously. Rutherford et al., (1995). Prior to experiments, sections were brought to −20° C. and then to room temperature. Sections were preincubated for 15 min at room temperature in 50 mM Tris-HCl (pH 7.3) to remove the endogenous ligands and/or modulators, then incubated for 30 min at room temperature in 50 mM Tris-HCl buffer containing 10 μM CaCl2 and 25 nM N^G-nitro-L-[2,3,4,5-H]arginine hydrochloride ([^3H]L-NA, specific activity: 48-57 Ci/mmol, Amersham, Arlington Heights, Ill., U.S.A.). Unlabelled L-N^G-nitro-arginiine (L-NA, Sigma, St. Louis, Mo., U.S.A.), D-N^G-nitro-arginine (D-NA, RBI, Natick, Mass., U.S.A.) and 7-nitroindazole (7-NI, Cookson Chemicals Ltd., England) was added at concentrations of 10, 10, and 100 μM, respectively. The sections were then washed twice for 5 min in ice-cold buffer and rinsed for 10 sec in ice-cold distilled water to eliminate residual buffer. After drying with cold air, the slides were tightly apposed to ^3H-Hyperfilm (Amersham) together with tritiated polymer standards (Amersham) and exposed at −4° C. for 6 weeks.
Films were developed in Kodak D-19 and fixed in Kodak Rapid Fixer, according to the manufacturer's instructions. The optical density of the regions of interest was measured by a computer-assisted image analysis (System M4, Imaging Research, St. Catharines, Ontario, Canada). The relationship between optical density and radioactivity was examined with reference to the tritium standards (Amersham, [^3H]microscale) co-exposed with the tissue sections. […] The densities of NOS binding sites are expressed in fmol bound [^3H]L-NA/mg tissue using the [^3H]L-NA concentration of 25 nM.

For assay [1] the following is noted: Babbedge et al. (1993); cited from earlier work.
A short description of assay [2]: Blood pressure responses to L-NA (femoral artery catheterization). The class given is in vivo, mice. Here is the method: Mice were kept at normal temperature (37° C.), anesthetized with urethane ([…], intraperitoneal injection) or halothane inhalation, and ventilated using an SAR-830 mouse ventilator (CWE Instruments). Depth of anesthesia was adjusted to keep the blood pressure of animals unresponsive to tail-pinch with forceps. End-tidal CO2 was monitored with a microcapnometer and kept constant by adjustment of respiratory parameters. The right femoral artery was cannulated using stretched PE-10 polyethylene tubing (Clay Adams) for mean arterial blood pressure recordings using an ETH-400 transducer and a MacLab data acquisition system (ADI Instruments). For awake measurements, the femoral artery catheter was placed under halothane anesthesia and the wound was covered with 1% xylocane ointment to diminish discomfort. Recordings were made within one hour of the procedure. Data are expressed as means with standard deviation. Statistical evaluation was performed by t-test.
Mean arterial blood pressure (MABP) of urethane-anesthetized wild-type (solid line in FIG. 5) and eNOS mutant mice (dotted line in FIG. 5) were measured by femoral artery catheterization and recorded for 30 minutes of baseline before L-NA administration (arrows in FIG. 5). At time 0, 12 mg/kg of L-NA was given intraperitoneally. […] The blood pressure of eNOS mutant mice dropped from a baseline of 98 mm Hg to 66 mm Hg (n=5). […]

For the next assay, the system named is pial arterioles. As to the kind of experiment: Pial arteriole diameter during superfusion in closed cranial window. In kind it is in vivo, mice. The source says: The mouse head was fixed in a stereotaxic frame and the skull exposed by a longitudinal skin incision. A stainless steel cranial window ring (8.0 mm in inner diameter, 2.0 mm in height) containing three ports was imbedded into a loop of bone wax over the skull. Dental acrylic was then applied. A craniotomy (2×1.5 mm) was made in the left parietal bone within the ring of the window. After dura was opened and the brain surface superfused with artificial cerebrospinal fluid (aCSF), a cover glass was placed to close the window. The volume under the window was approximately 0.1 ml. The composition of aCSF was as follows (in mMol/L): […] The aCSF was superfused by an infusion pump (0.4 ml/min) via a PE-100 tubing connected to a window port. Intracranial pressure was maintained at 5-8 mm Hg. The temperature of aCSF within the windows was maintained at 36.5-37.0° C. Pial vessels were visualized through a cranial window by an intravital microscope (Leitz, Germany) equipped with a video camera ([…], Hamamatsu Photonics, Hamamatsu, Japan). The diameter of a single pial arteriole (20-30 μm) was continuously measured by a video width analyzer ([…], Hamamatsu, Japan) and recorded using the MacLab data acquisition and analysis system. After baseline stabilization, nitro-L-arginine or nitro-D-arginine solution (1 mM) was superfused into the window and the diameter of pial arteriole measured continuously 40 min thereafter.

For the next assay, the system named is aortic rings. Put plainly: Endothelium-dependent relaxation of aortic rings in response to acetylcholine. Set-up: species or system mice. An excerpt:
The rings were pre-contracted with 10^−7 M norepinephrine and exposed to increasing concentrations of acetylcholine (ACh) from 10^−8 M to 3×10^−5 M. 2-3 segments were collected from each mouse, and five mice were used from the wild-type and eNOS mutant groups. Mean data from each animal were used. Respective tracings are shown. Acetylcholine concentrations are expressed in logM.

The nature of assay [3]: Cerebral infarct size 24 hrs after middle cerebral artery (MCA) occlusion. In kind it is in vivo, mice.
Text: Male and female wild-type (SV-129 and C57 Black/6, Taconic Farms, Germantown, N.Y.) and eNOS mutant mice weighing 20 to 26 g were housed under diurnal lighting conditions and allowed free access to food and water ad libitum.
Mice were anesthetized with 2% halothane for induction and maintained on 1% halothane in 70/30% nitrous oxide/oxygen by mask. The right femoral artery was cannulated with PE-10 polyethylene tubing for arterial blood pressure measurement (Gould, Oxnard, Calif.) and blood gas determination (Corning 178, Ciba Corning Diag., Medford, Mass.). Rectal temperature was maintained between 36.5-37.5° C. with a homeothermic blanket system (YSI, Yellow Springs, Ohio).
Focal cerebral ischemia was induced by occlusion of middle cerebral artery (MCA) using the intraluminal filament technique. […] Through a ventral midline incision, the right common and external arteries were isolated and ligated. A microvascular clip (Zen temporary clip, Ohwa Tsusho, Tokyo, Japan) was temporarily placed on the internal artery and the pterygopalatine artery. An 8-0 nylon monofilament (Ethicon, Somerville, N.J.) coated with silicone was introduced through a small incision in the common corotid artery and advanced 10 mm distal to the carotid bifurcation so as to occlude the MCA and posterior communicating artery. The wound was sutured and the animal returned to its cage and allowed free access to water and food.
Twenty-four hours later, animals were sacrificed with an overdoses of pentobarbital and the brains removed and sectioned coronally into five 2-mm slices in a mouse brain matrix. Slices were placed in 2% TTC solution, followed by 10% formalin overnight. […] The infarction area, outlined in white, was measured (Bioquant IV image analysis system) on the posterior surface of each section, and the infarction volume was calculated by summing the infarct volumes of sequential 2 mm thick sections. […]
Assay [4] is described as follows: Physiological data (blood gases, MABP) before MCA occlusion and after ischemia. The class given is in vivo, mice. The procedure: The right femoral artery was cannulated with PE-10 polyethylene tubing for arterial blood pressure measurement (Gould, Oxnard, Calif.) and blood gas determination (Corning 178, Ciba Corning Diag., Medford, Mass.). Rectal temperature was maintained between 36.5-37.5° C. with a homeothermic blanket system (YSI, Yellow Springs, Ohio). […] The investigator was blinded to the treatment group in this protocol.

The conditions of assay [5]: eNOS mutant mice; 250 μg/ml in drinking water, daily dose about 750 μg; decrease from 102 mm Hg.
Experimental: The effect of hypertension in vascular injury responses (both filament and cuff models) is measured by repeating the experiments after treating eNOS mutant mice with hydralazine to reduce their blood pressure to normotensive levels.
Setting [6] is: Amygdaloid complex, nNOS mutant.
Where [7] appears, read: Cerebellum (molecular layer), SV-129.
[8] abbreviates: Cerebellum (molecular layer), nNOS mutant.
Where [9] appears, read: Hippocampal CA3 subfield, SV-129.
[10] abbreviates: Hippocampal CA3 subfield, nNOS mutant.

Counter-ions that a name gives are not always drawn. Marks after values point to notes of the source that are not given here.

The values below come from US6630347B1, “Endothelial NOS transgenic animals and methods of use” (The General Hospital Corporation, priority 1996, dated 2003).

In the case of `O=[N+]([O-])c1cccc2cn[nH]c12` [7-NI, 7-nitroindazole], the “[3H]L-NA binding in the presence of 7-NI” value with NOS binding sites (100 μM, all regions measured, wild-type and eNOS mutant mice) is given as “significantly decreased”. For the same molecule, the “L-NA displaceable [3H]L-NA binding in the presence of 7-NI” value (“L-NA displaceable … of 7-NI” for short) with NOS binding sites (Amygdaloid complex, C57black/6) is on record as 21 ± 4.8 fmol/mg tissue; in the assay with NOS binding sites (Amygdaloid complex, SV-129), 21 ± 2.1 fmol/mg tissue; with NOS binding sites (Amygdaloid complex, eNOS mutant), 21 ± 2.9 fmol/mg tissue; in the assay with NOS binding sites (setting [6]) it was 23 ± 2.5 fmol/mg tissue; in the assay on NOS binding sites (Cerebellum (molecular layer), C57black/6), 23 ± 5.4 fmol/mg tissue; in the assay with NOS binding sites (setting [7]), 18 ± 1.3 fmol/mg tissue. Further, the “L-NA displaceable … of 7-NI” value with NOS binding sites (Cerebellum (molecular layer), eNOS mutant) was 20 ± 2.2 fmol/mg tissue; in the assay on NOS binding sites (setting [8]), 24 ± 1.0 fmol/mg tissue; in the assay on NOS binding sites (Dentate gyrus, C57black/6), 22 ± 4.6 fmol/mg tissue; in the assay with NOS binding sites (Dentate gyrus, SV-129) it was 18 ± 0.7 fmol/mg tissue; in the assay with NOS binding sites (Dentate gyrus, eNOS mutant) it was 20 ± 2.7 fmol/mg tissue; in the assay with NOS binding sites (Dentate gyrus, nNOS mutant), 22 ± 1.7 fmol/mg tissue. Moreover, the “L-NA displaceable … of 7-NI” value in the assay on NOS binding sites (Hippocampal CA3 subfield, C57black/6) was 22 ± 4.7 fmol/mg tissue; in the assay with NOS binding sites (setting [9]) it was 18 ± 1.8 fmol/mg tissue; with NOS binding sites (Hippocampal CA3 subfield, eNOS mutant), 21 ± 1.8 fmol/mg tissue; in the assay with NOS binding sites (setting [10]), 23 ± 2.3 fmol/mg tissue; with NOS binding sites (Olfactory bulb (glanular layer), C57black/6), 28 ± 4.1 fmol/mg tissue; with NOS binding sites (Olfactory bulb (glanular layer), SV-129), 17 ± 0.7 fmol/mg tissue. For the same molecule, in the assay with NOS binding sites (Olfactory bulb (glanular layer), nNOS mutant), the “L-NA displaceable … of 7-NI” value is recorded as 30 ± 2.7 fmol/mg tissue. The “effect on blood pressure” value in assay [1] is reported as “does not increase blood pressure”.

As for `NC(=N[N+](=O)[O-])NCCCC(N)C(=O)O` [D-NA, D-N^G-nitro-arginine], the “blood pressure effects as seen with L-NA” value in assay [2] (wild-type and eNOS mutant mice, 12 mg/kg) is “not seen”. The “change in pial diameter” value in the assay with pial arterioles (eNOS mutant mice, 1 mM superfusion) was “No change”. The “L-NA displaceable [3H]L-NA binding in the presence of D-NA” value is reported as 64 ± 7.6 fmol/mg tissue in the assay with NOS binding sites (Amygdaloid complex, SV-129); 3 ± 1.7*^,# fmol/mg tissue with NOS binding sites (setting [6]); 59 ± 6.7 fmol/mg tissue in the assay on NOS binding sites (setting [7]); 0 ± 3.6*^,# fmol/mg tissue in the assay on NOS binding sites (setting [8]); 43 ± 4.8 fmol/mg tissue in the assay with NOS binding sites (Dentate gyrus, SV-129); 2 ± 1.9*^,# fmol/mg tissue in the assay with NOS binding sites (Dentate gyrus, nNOS mutant). Further, the “L-NA displaceable [3H]L-NA binding in the presence of D-NA” value with NOS binding sites (setting [9]) is 66 ± 5.9 fmol/mg tissue; with NOS binding sites (setting [10]) it was 3 ± 1.9*^,# fmol/mg tissue; with NOS binding sites (Olfactory bulb (granular layer), SV-129) it was 92 ± 10.8 fmol/mg tissue; in the assay with NOS binding sites (Olfactory bulb (granular layer), nNOS mutant) it was 5 ± 3.0*^,# fmol/mg tissue.

As to `NC(=N[N+](=O)[O-])NCCCC(N)C(=O)O` [L-NA, L-nitroarginine], the “acetylcholine-induced relaxation after L-NA treatment” value in the assay on aortic rings (wild-type vessel rings, 10^-4 M L-NA for 1 hour) is given as “abolished”. For the same molecule, the “change of lesion size after MCA occlusion” value in assay [3] (protocol 2, wild-type mice) was “did not change”. The “change in MABP during superfusion” value in the assay with pial arterioles (1 mM superfusion) is on record as “no change”. Moreover, in the assay with pial arterioles (eNOS mutant mice, 1 mM superfusion for 40 min), the pial vessel diameter entry is listed as “increased”. Moreover, the “density of [3H]L-NA binding sites in the presence of L-NA” value in the assay with NOS binding sites (10 μM, all brain regions of all mouse strains) is “very low”.

Take `N=C(N)NCCC[C@H](N)C(=O)O` [L-arginine]: the “effect on the blood pressure responses to L-NA” value in assay [2] (200 mg/kg, intraperitoneal) is “prevented”.

In the case of `CC(=O)OCC[N+](C)(C)C` [acetylcholine], the “pre-addition tone present after acetylcholine” value with aortic rings (wild-type aortic segments pre-contracted with 10^-7 M norepinephrine, acetylcholine 3×10^-5 M) is on record as 60.3±14.6%.

Regarding `NNc1nncc2ccccc12` [hydralazine, hydralazine hydrochloride], the “change of infarct size” value in assay [3] (eNOS mutants made normotensive by hydralazine) is reported as “did not change”. The infarct volume in assay [3] (protocol 1, eNOS mutant mice made normotensive by hydralazine 1 mg/kg ip 1 hr before and 5, 17 hrs after MCA occlusion, n=10) was 48±7 % of hemisphere. The “MABP difference between groups after hydralazine administration” value in assay [4] (eNOS mutant mice given hydralazine vs wild-type mice) is on record as “did not differ”. In addition, in assay [4] (protocol 1, eNOS mutant, hydralazine, 10 min before MCA occlusion), the MABP before was determined as 102 ± 6 mmHg. The same molecule yielded an MABP after in assay [4] (protocol 1, eNOS mutant, hydralazine, 24 hrs after ischemia) of 102 mmHg. For the same molecule, in assay [5], the “mean arterial pressure after hydralazine” value stood at 72 mm Hg.
